Patent US9877956B2, “Antiviral compounds and methods of use thereof” (Trana Discovery, Inc., priority 2014, dated 2018)
Several values for one entry are separate records, joined by “and”; a condition that tells them apart may be missing. Equal entries are not always repeated.

Legend:
Format in all cases: cell-based
[1] = system: HIV-1 92/HT/599; assay: HIV-1 92/HT/599 replication in human PBMCs, reverse transcriptase in culture supernatants (RLU)
Procedure: (§1) In these studies, PHA-P stimulated PBMCs from three donors were pooled together and re-suspended in fresh tissue culture medium at 1×10^6 cells/mL and plated in the interior wells of a 96 well round bottom microplate at 50µl/well. A 100µL volume of 9 concentrations of compound serially diluted were transferred to the round-bottom 96 well plate containing the cells in triplicate. Fifty microliters (µL) of HIV-1 at a pre-determined dilution was added. Each plate contained cell control wells and virus control wells in parallel with the experimental wells. After 7 days in culture, efficacy was evaluated by measuring the reverse transcriptase in the culture supernatants and the cells were stained with the tetrazolium dye XTT to evaluate cytotoxicity.

[2] = Cytotoxicity in human PBMCs (XTT); settings: PHA-P stimulated PBMCs pooled from three donors; human PBMCs, XTT
Procedure: as §1

[3] = system: HUMAN PBMCS; assay: Cytotoxicity in human PBMCs (XTT); settings: for TOXICITY VALUES (XTT - O.D. @ 450/650 nm), SAMPLE: individual samples
Procedure: as §1

## Cc1cn([C@H]2C[C@H](N=[N+]=[N-])[C@@H](CO)O2)c(=O)[nH]c1=O [AZT, Zidovudine, reference compound]
[1]; 0.003 μM
  % Virus Control: 28.53%
  Antiviral Test Values Mean RLU: 5503.7 RLU
[1]; 0.01 μM
  % Virus Control: 10.36%
  Antiviral Test Values Mean RLU: 1999.0 RLU
[1]; 0.032 μM
  % Virus Control: 13.16%
  Antiviral Test Values Mean RLU: 2538.7 RLU
[1]; 0.32 μM
  % Virus Control: 0.99%
  Antiviral Test Values Mean RLU: 190.7 RLU
[1]; 1 μM
  % Virus Control: 0.56%
  Antiviral Test Values Mean RLU: 112.7 RLU
[1]; HIV-1 92/HT/599, human PBMCs
  EC 25%: <3 nM
  EC 95%: 99 nM
[1]; Human immunodeficiency virus 1, PBMC, read-out: EC50 (EC 50%), HIV-1 92/HT/599, human PBMCs
  EC50: < 3 nM
[2]
  CC50 at 7 days: > 1000 nM
[3]; 0.003 μM
  % Cell Viability: 114.74%
[3]; 0.003 μg/ml (so in the source)
  TOXICITY VALUES (XTT - O.D. @ 450/650 nm), SAMPLE: 1.2555 O.D. and 1.2949 O.D. and 1.3058 O.D.
[3]; 0.01 μM
  % Cell Viability: 123.74%
[3]; 0.01 μg/ml (so in the source)
  TOXICITY VALUES (XTT - O.D. @ 450/650 nm), SAMPLE: 1.2369 O.D. and 1.6369 O.D.
[3]; 0.032 μM
  % Cell Viability: 111.47%
[3]; 0.032 μg/ml (so in the source)
  TOXICITY VALUES (XTT - O.D. @ 450/650 nm), SAMPLE: 1.2990 O.D. and 1.2908 O.D. and 1.1569 O.D.
[3]; 0.32 μM
  % Cell Viability: 92.20%
[3]; 0.32 μg/ml (AZT table)
  TOXICITY VALUES (XTT - O.D. @ 450/650 nm), SAMPLE: 0.9607 O.D. and 0.9984 O.D. and 1.1398 O.D.
[3]; 1 μM
  % Cell Viability: 81.66%
[3]; 1 μg/ml (AZT table)
  TOXICITY VALUES (XTT - O.D. @ 450/650 nm), SAMPLE: 1.1224 O.D. and 0.5742 O.D. and 1.0479 O.D.
[3]; human PBMCs, XTT
  TC 25%: >1000 nM
  TC 95%: >1000 nM
